Reference: PubChem BioAssay (NCI)
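Where inhibition never reached the appropriate level, the endpoint shown equals the highest concentration tested. Otherwise, values were interpolated linearly from a five-concentration, 48-hour dose response in 96-well plates. TGI: total growth inhibition.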

Columns and labels:
Experiment in all cases: NCI anticancer screen, dose series, 48 h
[1] = tested on: DU-145 prostate
[2] = tested on: A549 NSCLC
[3] = tested on: MDA-N
[4] = tested on: NCI-H522 lung
[5] = tested on: EKVX NSCLC
[6] = tested on: UACC-257 melanoma
[7] = tested on: 786-0 renal
[8] = tested on: OVCAR-8 ovarian
[9] = tested on: HCC-2998 colon
[10] = tested on: HL-60(TB) leukemia
[11] = tested on: MALME-3M melanoma
[12] = tested on: ACHN renal
[13] = tested on: HOP-92 NSCLC
[14] = tested on: HCT-116 colon
[15] = tested on: CAKI-1 renal
[16] = tested on: UACC-62 melanoma
[17] = tested on: BT-549 breast
[18] = tested on: HOP-62 NSCLC
[19] = tested on: NCI-H226 lung
[20] = tested on: SF-268 CNS
[21] = tested on: SK-MEL-28 melanoma
[22] = tested on: COLO 205 colon
[23] = tested on: A498 renal
[24] = tested on: MDA-MB-435
[25] = tested on: RPMI-8226 leukemia
[26] = tested on: M14 melanoma
[27] = tested on: SW-620 colon
[28] = tested on: K-562 leukemia
[29] = tested on: MOLT-4 leukemia
[30] = tested on: UO-31 renal
[31] = tested on: HCT-15 colon
[32] = tested on: MCF7 breast
[33] = tested on: SR leukemia
[34] = tested on: KM12 colon
[35] = tested on: MDA-MB-231 breast
[36] = tested on: NCI-H460 lung
[37] = tested on: SK-MEL-2 melanoma
[38] = tested on: OVCAR-3 ovarian
[39] = tested on: SK-MEL-5 melanoma
[40] = tested on: NCI/ADR-RES ovarian
[41] = tested on: NCI-H23 lung
[42] = tested on: HT29 colon
[43] = tested on: OVCAR-4 ovarian
[44] = tested on: RXF 393 renal
[45] = tested on: SNB-19 CNS
[46] = tested on: OVCAR-5 ovarian
[47] = tested on: SN12C renal
[48] = tested on: PC-3 prostate
[49] = tested on: U251 CNS
[50] = tested on: SF-295 CNS
[51] = tested on: SF-539 CNS
[52] = tested on: HS 578T breast
[53] = tested on: TK-10 renal
[54] = tested on: LOX IMVI melanoma
[55] = tested on: IGROV1 ovarian

Measured: TGI

CC(C)OC(=O)C1=C2c3ncccc3C(=O)N2[C@@H](Cl)[C@@H](Cl)[C@@H]1Cl
95.9 µM: [29]
90.4 µM: [47]
> 100 µM: all other assays above
